PubChem BioAssay AID720513 (Broad Institute, 2013)
Results filed as inconclusive are left out.

Tested on: U2OS PGC1a acetylation AlphaLISA, overnight
Test: PGC1a acetylation increase, cellular AlphaLISA – cell-based, cherry-picked samples, set 6, dose response (AID 720513);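 further: cells made to overexpress flag tagged PGC1a plus GCN5 acetyltransferase by viral infection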

Row | SMILES | AC40
1 | Cc1cc(Cn2nc(C(=O)NCc3cccc(C(F)(F)F)c3)cc2-c2ccccc2)on1 | 5.81 µM
2 | CCN(CC)C(=O)CSc1nnc2nnc3cc(Cl)ccc3n12 | 17.9 µM
3 | COc1cc(CNC(=O)c2cc(-c3cc(C)cc(F)c3)n[nH]2)cc(OC)c1 | 15.8 µM
4 | CN(C(=O)C1CC1)C1CCS(=O)(=O)C1 (centres undefined) | 15.2 µM
5 | CCCc1cc2c(cc1N(C)S(=O)(=O)c1ccccc1)OCO2 | 2.96 µM
6 | Cc1ccc(NC(=O)c2c(C(F)(F)F)nn(C)c2SCc2ccc(Cl)cc2)cc1C | 5.5 µM
7 | C[C@@H]1CN([C@@H](C)CO)C(=O)c2c(c3ccccc3n2C)-c2ccccc2CO[C@@H]1CN(C)C(=O)Nc1cccc(C(F)(F)F)c1 | 10 µM
8 | COC(=O)[C@@]1(C)[C@H]2C(=O)N(Cc3ccccc3)C(=O)[C@H]2[C@H]2CN=C(SCC3CC3)N21 | 16.8 µM
9 | O=C(Nc1cccc(C(F)(F)F)c1)c1sc(Cl)nc1C(F)(F)F | 3.01 µM
10 | O=C(NC(Nc1cc(C(F)(F)F)ccc1Cl)C(=O)c1ccccc1)c1ccccc1 (centres undefined) | 13.6 µM
11 | N#Cc1ccccc1COC(=O)c1ccc2c(c1)OCCO2 | 5.43 µM
12 | Cc1cc2cc3c(cc2nc1SCC(=O)OC(C)C)OCCO3 | 11.5 µM
13 | COC(=O)c1ccc2[nH]c3cccc(/C(=C/c4ccccc4)c4ccccc4)c3c2c1 | 3.62 µM
14 | OCCNc1nc(N2CCCCC2)nc2ccccc12 | 18.1 µM
15 | Cc1cc(C)c2c(-n3cccc3)c(C(=O)NNS(=O)(=O)c3ccc(F)cc3)sc2n1 | 5.62 µM
16 | O=C(Cc1ccccc1)Nc1ccc(NC(=O)c2ccco2)nc1 | 1.44 µM
17 | COc1ccc(S(=O)(=O)N(Cc2ccccc2)Cc2nc(-c3ccccc3)no2)cc1 | 8.22 µM
18 | Cc1cc(C)nc(NC(=O)c2c(-c3ccccc3Cl)noc2C)n1 | 16.8 µM
19 | O=[N+]([O-])c1ccc(N2CCN(CC3CCCCC3)CC2)cc1 | 16 µM
20 | CC(C)CCNc1nc(N2CCCC2)c2c(c1C#N)CCN(C)C2 | 3.92 µM
21 | Nc1c(C(=O)Nc2ccccc2)sc2ncc([N+](=O)[O-])cc12 | 1.06 µM
22 | CCCCSc1ccc(NC(=O)c2cccnc2)cc1 | 1.78 µM
23 | COc1ccc(-c2nc3c(C)cc(Br)cn3c2Cc2ccc(C)cc2)cc1OC | 8.31 µM
24 | COc1cccc(C(=O)/C=C/c2ccc(OCC#N)c(OC)c2)c1 | 6.74 µM
25 | COc1cc(-c2nnn(CC#N)n2)ccc1OCc1ccccc1 | 0.296 µM

Row | SMILES | AC40
26 | CC1CC1C(=O)OCC(=O)NCc1ccc(Cl)cc1 (centres undefined) | 18.2 µM
27 | CCOC(=O)C1=CC[C@@H](c2ccccc2)N(S(=O)(=O)c2ccc(C)cc2)[C@H]1c1ccc(CC)cc1 | 0.785 µM
28 | COc1ccc(CCNC(=O)COc2ccc(S(=O)(=O)N3CCCC3)cc2)cc1 | 19.3 µM
29 | Cc1cccc(C(=O)Nc2ccc(C(=O)/C=C/c3cccnc3)cc2)c1 | 2.34 µM
30 | CC(=O)c1ccc(NC(=O)N2CCc3ccccc3C2)cc1 | 0.412 µM
31 | Cc1ccc(-c2nnc(Nc3ccc4c(c3)OCO4)c3ccccc23)cc1S(=O)(=O)NCCO | 2.08 µM
32 | Cc1cccc(C)c1OC1(c2ccccc2)OC(=O)c2ccccc21 (centres undefined) | 1.1 µM
33 | O=C(Cc1ccc(Cl)cc1)c1c[nH]c(C(=O)NCc2cccnc2)c1 | 3.56 µM
34 | Oc1ccc(Nc2nnc(-c3ccc(O)cc3)c3ccccc23)cc1 | 1.57 µM
35 | COc1cccc(-c2ccc(C3[C@@H]4CN(S(=O)(=O)c5cccc(OC)c5)C[C@H]3N4)cc2)c1 (some centres undefined) | 10.5 µM
36 | Cc1cccc(Nc2nnc(-c3ccc(C(=O)N4C[C@H]5C[C@H](C4)c4cccc(=O)n4C5)cc3)c3ccccc23)c1 | 11.2 µM
37 | CCOC(=O)N1CCN(C(=O)C(NS(=O)(=O)c2cccc3nsnc23)c2ccccc2)CC1 (centres undefined) | 17.9 µM
38 | O=C(Nc1ccccc1-c1ccccc1)NC1CC2CCCC(C1)N2Cc1ccc(F)cc1 (centres undefined) | 10.5 µM
39 | O=C1NCN(c2ccccc2)C12CCN(C(c1cccc3ccccc13)c1nnnn1C1CCCCC1)CC2 (centres undefined) | 5.43 µM
40 | O=C(Cc1ccccc1)N1CCN(c2ccc([N+](=O)[O-])cc2)CC1 | 0.523 µM
41 | O=C(NCc1ccccc1)c1ccc(NC(=O)C2CC2)cc1 | 11.1 µM
42 | CCCCN(CCCC)S(=O)(=O)c1ccc2oc(C(=O)N3CCOCC3)c(C)c2c1 | 1.79 µM
43 | O=C(NCc1ccc(Cl)cc1)C1CCC(CNc2c(N3CCCC3)c(=O)c2=O)CC1 (centres undefined) | 6.36 µM
44 | c1coc(CN(Cc2cccs2)Cc2nnnn2C2CCCCC2)c1 | 2.52 µM
45 | CN1C(=O)/C(=C\c2ccc(N3CCCCC3)o2)C(=O)NC1=S | 4.61 µM
46 | Cc1ccc(S(=O)(=O)CCSC(=N)N)cc1 | 5.17 µM
47 | Cc1ccc(OC(=O)N(C)C[C@H]2OCc3ccccc3-c3c(n(C)c4ccccc34)C(=O)N([C@@H](C)CO)C[C@H]2C)cc1 | 4.98 µM
48 | COc1cc(NC(=O)c2cccs2)c(OC)cc1NC(=O)CCC(=O)Nc1ccc2ncccc2c1 | 0.785 µM
49 | CC(C)[C@H](C)NC(=O)N(C)C[C@H]1OCc2ccccc2-c2c(n(C)c3ccccc23)C(=O)N([C@H](C)CO)C[C@H]1C | 5.85 µM
50 | COc1ccccc1-c1ccc(C2[C@@H]3CN(Cc4cccc(F)c4)C[C@H]2N3)cc1 (some centres undefined) | 7.21 µM

Row | SMILES | AC40
51 | O=C(C[C@H]1CC[C@H]2[C@@H](COC[C@@H](O)CN2C(=O)c2cc(Cl)cc(Cl)c2)O1)N1CCc2ccccc2C1 | 9.14 µM
52 | COC(=O)c1cc2ccsc2n1CC(=O)Nc1cc(Cl)ccc1OC | 7.88 µM
53 | C[C@H](CO)N1C[C@H](C)[C@@H](CN(C)Cc2ccc3c(c2)OCO3)Oc2cc(Br)ccc2S1(=O)=O | 18.6 µM
54 | Cc1ccc(S(=O)(=O)NC(CC(C)C)C(=O)N2CCCCCCC2)cc1 (centres undefined) | 1.59 µM
55 | CCCCC(=O)Nc1ccc(NC(=O)c2cccs2)cn1 | 18.9 µM
56 | COc1ccc(NC(=O)CSC2CC(=O)N(c3ccc4c(c3)OCCO4)C2=O)cc1 (centres undefined) | 16.5 µM
57 | Cc1cccc(OC2(c3ccccc3)OC(=O)c3ccccc32)c1C (centres undefined) | 3.37 µM
58 | O=C(CN1CCC(n2nnc3cc(F)ccc32)CC1)Nc1ccc2c(c1)CCC2 | 2.71 µM
59 | COc1cc2cc(-c3ccc(O)cc3O)nc(C)c2cc1OC | 19.3 µM
60 | CSCCC(c1nnnn1-c1c(C)cccc1C)N1CCC(n2c(=O)[nH]c3ccccc32)CC1 (centres undefined) | 1.32 µM
61 | CC1CN(S(=O)(=O)c2ccc(C(=O)NCCCn3ccnc3)cc2)CC(C)O1 (centres undefined) | 0.246 µM
62 | O=C(NCc1ccccc1)C(c1ccccc1)N(C(=O)c1csnn1)c1ccc(F)cc1 (centres undefined) | 4.34 µM
63 | O=C(CN1CCC(n2nnc3ccccc32)CC1)NCc1cccs1 | 1.67 µM
64 | COc1ccccc1-c1ccc2c(c1)C(C)(Cc1ccc(OC(F)(F)F)cc1)C(=O)N2 (centres undefined) | 2.47 µM
65 | CC(=O)c1ccc(N2CCN(c3ccc(S(=O)(=O)NCCN(C)C)cc3[N+](=O)[O-])CC2)cc1 | 6.58 µM
66 | CCOC(=O)C1=CC[C@@H](c2ccc(OC)cc2)N(S(=O)(=O)c2ccc(C)cc2)[C@H]1CC | 3.36 µM
67 | CCN(CC)CCOc1ccc(/C(=C(\Cl)c2ccccc2)c2ccccc2)cc1 | 3.01 µM
68 | CC(Oc1ccc(Cl)cc1Cl)c1nc(-c2ccc(NC(=O)c3cccnc3)cc2)no1 (centres undefined) | 0.581 µM
69 | CN1Cc2c(N3CCOCC3)nc3sc(C(=O)c4ccc(Br)cc4)c(N)c3c2CC1(C)C | 0.996 µM
70 | CCO[C@H]1OC(C(=O)N2CCCCCCC2)=C[C@@H](C2CCCCC2)[C@@H]1CCCO | 1.96 µM
71 | O=C(Cc1ccccc1)Nc1ccc(NC(=O)c2cccs2)cc1 | 1.23 µM
72 | O=C(NCCCN1CCOCC1)c1ccccc1N1C(=O)[C@@H]2Cc3c([nH]c4ccccc34)C(c3ccccc3)N2C1=O (some centres undefined) | 6.79 µM
73 | CC(=O)C1=CCC(c2cccc3ccccc23)N(S(=O)(=O)c2ccc(C)cc2)C1 (centres undefined) | 18.7 µM
74 | COc1ccc(C2CC(=O)N(C)c3ccccc3S2)cc1 (centres undefined) | 6.61 µM
